From patent publication US9006282B2 (Redx Pharma Limited, priority 2009, dated 2015)
pIC50: −log10 of the molar value.

target: HMG-CoA Reductase (Homo sapiens (Human), UniProt P04035); experiment: HMG-CoA Reductase assay kit (Sigma-Aldrich CS1090), spectrophotometric NADPH absorbance at 340 nm; assay type: biochemical; settings: atorvastatin compounds; inhibitor varied 0 nM to 50 nM; NADPH and HMG-CoA 200 μM
Experimental: All assays were carried out in a reaction buffer containing […] KxPO4 at pH 7.2, 1 mM EDTA, 500 mM KCl and 1 mg/ml BSA. The concentrations of NADPH and HMG-CoA were both 200 μM. […] Absorbance readings were then taken every 20 seconds for 600 seconds.
Preparation of the Assay Solution
Add a buffer to all samples. • b. […] Add the reconstituted NADPH to all samples. • d. Add Substrate Solution (HMG-CoA) to all samples. • e. […] Mix the samples thoroughly.
3. The kinetics programme was started immediately.
V=volume of enzyme used in the assay (ml)
0.6=enzyme concentration in mg-protein (mgPO/ml (0.55-0.65 mgP/ml)
LP=light path in cm (1 for cuvettes).

Sequence of HMG-CoA Reductase (P04035 340-888): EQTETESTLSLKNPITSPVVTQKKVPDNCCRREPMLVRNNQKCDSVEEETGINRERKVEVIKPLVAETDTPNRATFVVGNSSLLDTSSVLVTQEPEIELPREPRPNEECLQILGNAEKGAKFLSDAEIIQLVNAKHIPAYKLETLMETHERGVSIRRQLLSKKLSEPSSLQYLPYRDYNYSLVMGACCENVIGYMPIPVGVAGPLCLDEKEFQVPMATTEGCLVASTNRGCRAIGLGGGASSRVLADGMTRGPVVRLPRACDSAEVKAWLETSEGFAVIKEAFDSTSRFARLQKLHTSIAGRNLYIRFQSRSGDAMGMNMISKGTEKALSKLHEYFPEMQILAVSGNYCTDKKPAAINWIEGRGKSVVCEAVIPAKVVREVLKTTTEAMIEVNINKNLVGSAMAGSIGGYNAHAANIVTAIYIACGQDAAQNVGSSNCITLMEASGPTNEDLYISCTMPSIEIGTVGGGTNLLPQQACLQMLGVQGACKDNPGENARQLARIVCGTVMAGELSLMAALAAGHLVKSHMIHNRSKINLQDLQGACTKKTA

Row | SMILES | pIC50
1 | COC1C[C@H](OC(=O)c2cccnc2)C[C@@H](CCn2c(-c3ccc(F)cc3)c(-c3ccccc3)c(C(=O)Nc3ccccc3)c2C(C)C)O1 (some centres unmarked) | > 9.00
2 | CCCOC1C[C@H](O)C[C@@H](CCn2c(-c3ccc(F)cc3)c(-c3ccccc3)c(C(=O)Nc3ccccc3)c2C(C)C)O1 (some centres unmarked) | > 9.00
3 | CC(C)c1c(C(=O)Nc2ccccc2)c(-c2ccccc2)c(-c2ccc(F)cc2)n1CC[C@@H]1C[C@@H](O)CC(OC2CCCCC2)O1 (some centres unmarked) | > 9.00
4 | COc1ccc(OC2C[C@H](O)C[C@@H](CCn3c(-c4ccc(F)cc4)c(-c4ccccc4)c(C(=O)Nc4ccccc4)c3C(C)C)O2)c(OC)c1 (some centres unmarked) | > 9.00

same assay, conditions: rosuvastatin compounds; inhibitor varied 0 nM to 50 nM; NADPH and HMG-CoA 200 μM

Row | SMILES | pIC50
5 | COC1C[C@H](OC(=O)c2cccnc2)C[C@@H](/C=C/c2c(-c3ccc(F)cc3)nc(N(C)S(C)(=O)=O)nc2C(C)C)O1 (some centres unmarked) | > 9.00
6 | CC(C)c1nc(N(C)S(C)(=O)=O)nc(-c2ccc(F)cc2)c1/C=C/[C@@H]1C[C@@H](OCc2ccccc2)CC(OCC(Cl)(Cl)Cl)O1 (some centres unmarked) | 8.70
7 | CC(C)c1nc(N(C)S(C)(=O)=O)nc(-c2ccc(F)cc2)c1/C=C/[C@@H]1C[C@@H](O)CC(Oc2c(F)cc(F)cc2F)O1 (some centres unmarked) | 9.00
8 | COc1ccc(OC2C[C@H](O)C[C@@H](/C=C/c3c(-c4ccc(F)cc4)nc(N(C)S(C)(=O)=O)nc3C(C)C)O2)c(OC)c1 (some centres unmarked) | 8.70
9 | CC(C)c1nc(N(C)S(C)(=O)=O)nc(-c2ccc(F)cc2)c1/C=C/[C@@H]1C[C@@H](O)CC(OCC(Cl)(Cl)Cl)O1 (some centres unmarked) | 8.70
10 | CCCOC1C[C@H](O)C[C@@H](/C=C/c2c(-c3ccc(F)cc3)nc(N(C)S(C)(=O)=O)nc2C(C)C)O1 (some centres unmarked) | 8.00

test system: rat plasma triglyceride levels; experiment: Rat plasma triglyceride levels after 3 or 5 days BID oral treatment; assay type: in vivo; settings: male SD rats, 25 mg/kg po BID for 3 or 5 days, plasma 16 hours after last dose
Experimental: 112 male SD rats (Harlan) were housed in groups of 6 under a 12 h light dark cycle (lights on 07.00 h) with free access to food (normal laboratory chow) and water. Animals between 148-183 g were allocated to treatment groups of 8 balanced by body weight and treatments were balanced across cages.
Four rosuvastatin analogues were made up in 10% PEG300/10% cremophor/80% methyl cellulose (0.5%) (vehicle 1) to make a 5 mg/mL solution.
Rosuvastatin was formulated in 0.5% Tween in 0.5% methyl cellulose (vehicle 2) at 5 mg/kg as a suspension.
Rats were orally dosed with vehicle 1, one of the four rosuvastatin analogues in vehicle 1 (25 mg/kg), vehicle 2 or rosuvastatin in vehicle 2 (25 mg/kg po), BID for 3 or 5 days.
Sixteen hours after the last treatment, terminal plasma samples were taken, stored at −20° C., and transported on dry ice for analysis of triglyceride levels.
Data for each time-point were analysed by 1-way ANOVA and post-hoc Dunnett's test.

Row | SMILES | effect on plasma triglycerides
11 | CC(C)c1nc(N(C)S(C)(=O)=O)nc(-c2ccc(F)cc2)c1C=CC(O)CC(O)CC(=O)O (centres unmarked) [rosuvastatin, 7-[4-(4-fluorophenyl)-6-(1-methylethyl)-2-(methyl-methylsulfonyl-amino)-pyrimidin-5-yl]-3,5-dihydroxy-hept-6-enoic acid] | marked reduction in plasma triglycerides
